In one series the target is T1, α-glucosidase (Saccharomyces cerevisiae, UniProt P53341).
T1 construct: purchased Sigma-Aldrich, Munich, Germany
Briefly: biochemical. The format is biochemical. The settings on record: for inhibition at 200 µM: read-out: Inhibitions (%); for effectiveness as inhibitor compared to acarbose: ratio of IC50 values vs acarbose. The protocol:
In vitro analysis of all the synthesized compounds was performed in order to justify the validity of in silico outcomes. Results were found in good agreement with the in silico study. […] A general spectrophotometric technique was used to perform the α-glucosidase inhibition assay with slight modifications. […] The experiment was repeated thrice and inhibition percentages were calculated using the following formula. % Inhibition = [(A control − A sample) / A control] × 100(1) where ‘A’ stands for absorbance.

This is an account of results in paper PMC8161055, “Synthesis and α-Glucosidase Inhibition Activity of 2-[3-(Benzoyl/4-bromobenzoyl)-4-hydroxy-1,1-dioxido-2H-benzo[e][1,2]thiazin-2-yl]-N-arylacetamides: An In Silico and Biochemical Approach” (Molecules, 2021).

pIC50: −log10 of the molar value. Like-named read-outs stand apart in the source and are kept apart here. Where only a bound is given, the exact number is not on record here.

T1 sequence (P53341 whole entry): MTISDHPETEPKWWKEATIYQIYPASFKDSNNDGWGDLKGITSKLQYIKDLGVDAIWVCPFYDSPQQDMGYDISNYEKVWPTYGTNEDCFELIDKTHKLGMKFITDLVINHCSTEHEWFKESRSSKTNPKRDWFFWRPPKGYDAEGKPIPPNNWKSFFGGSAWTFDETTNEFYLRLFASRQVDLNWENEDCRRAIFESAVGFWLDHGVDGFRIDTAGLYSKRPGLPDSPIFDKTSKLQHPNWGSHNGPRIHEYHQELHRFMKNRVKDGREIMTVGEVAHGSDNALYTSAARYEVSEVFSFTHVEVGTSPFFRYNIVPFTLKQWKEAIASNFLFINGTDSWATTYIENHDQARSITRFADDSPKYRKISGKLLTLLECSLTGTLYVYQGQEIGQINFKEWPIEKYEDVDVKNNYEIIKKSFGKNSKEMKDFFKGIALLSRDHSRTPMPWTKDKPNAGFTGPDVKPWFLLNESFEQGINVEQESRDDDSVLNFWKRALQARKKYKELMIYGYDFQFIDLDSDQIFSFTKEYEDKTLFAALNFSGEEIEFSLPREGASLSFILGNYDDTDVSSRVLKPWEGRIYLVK

Turning to “2-(3-(4-Bromobenzoyl)-4-hydroxy-1,1-dioxido-2H-benzo[e][1,2]thiazin-2-yl)-N-(4-methoxyphenyl)acetamide [Compound 12m]”, the pIC50 at α-glucosidase (PNPG substrate, pH 6.8, 37 °C, read-out: IC50) was 4.23. The “Inhibitions (%)” value on α-glucosidase (at 200 μM concentration) is listed as 65%.
On to `O=C(C1=C(O)c2ccccc2S(=O)(=O)N1)c1ccccc1` [Compound 9a, (4-Hydroxy-1,1-dioxido-2H-benzo[e][1,2]thiazin-3-yl)(phenyl)methanone], for which the melting point was in the range of 156 to 157 °C. Moreover, the inhibition at 200 µM on α-glucosidase was 20%.
Consider `O=C(C1=C(O)c2ccccc2S(=O)(=O)N1)c1ccc(Br)cc1` [Compound 9b, (4-Bromophenyl)(4-hydroxy-1,1-dioxido-2H-benzo[e][1,2]thiazin-3-yl)methanone], for which the melting point lay in the range of 144 to 146 °C. Besides, on α-glucosidase, the pIC50 is less than 4.00 and the inhibition at 200 µM was 55%.
The compound `O=C(CN1C(C(=O)c2ccccc2)=C(O)c2ccccc2S1(=O)=O)Nc1ccccc1Cl` [Compound 11a, 2-(3-Benzoyl-4-hydroxy-1,1-dioxido-2H-benzo[e][1,2]thiazin-2-yl)-N-(2-chlorophenyl)acetamide] gave a melting point of 141 to 142 °C. Further, the inhibition at 200 µM at α-glucosidase stood at 39%.
Taken in the same sequence, the figures for `O=C(CN1C(C(=O)c2ccccc2)=C(O)c2ccccc2S1(=O)=O)Nc1cccc(Cl)c1` [Compound 11b, 2-(3-Benzoyl-4-hydroxy-1,1-dioxido-2H-benzo[e][1,2]thiazin-2-yl)-N-(3-chlorophenyl)acetamide] were 182 to 184 °C and 32%.
The compound `O=C(CN1C(C(=O)c2ccccc2)=C(O)c2ccccc2S1(=O)=O)Nc1ccc(Cl)cc1` [Compound 11c, 2-(3-Benzoyl-4-hydroxy-1,1-dioxido-2H-benzo[e][1,2]thiazin-2-yl)-N-(4-chlorophenyl)acetamide] registered a melting point of 146 to 148 °C. For the same compound, on α-glucosidase, the pIC50 is 4.51 and the inhibition at 200 µM came to 79%.
`Cc1ccccc1NC(=O)CN1C(C(=O)c2ccccc2)=C(O)c2ccccc2S1(=O)=O` [Compound 11d, 2-(3-Benzoyl-4-hydroxy-1,1-dioxido-2H-benzo[e][1,2]thiazin-2-yl)-N-(o-tolyl)acetamide] came in with a melting point of 165 to 167 °C. Further, the inhibition at 200 µM on α-glucosidase turned out to be 10%.
As for `Cc1cccc(NC(=O)CN2C(C(=O)c3ccccc3)=C(O)c3ccccc3S2(=O)=O)c1` [Compound 11e, 2-(3-Benzoyl-4-hydroxy-1,1-dioxido-2H-benzo[e][1,2]thiazin-2-yl)-N-(m-tolyl)acetamide], the melting point lay within 177 to 178 °C. Moreover, the inhibition at 200 µM at α-glucosidase stood at 15%.
Taken in the same sequence, the figures for `Cc1ccc(NC(=O)CN2C(C(=O)c3ccccc3)=C(O)c3ccccc3S2(=O)=O)cc1` [Compound 11f, 2-(3-Benzoyl-4-hydroxy-1,1-dioxido-2H-benzo[e][1,2]thiazin-2-yl)-N-(p-tolyl)acetamide] were 136 to 137 °C and 37%.
For `O=C(CN1C(C(=O)c2ccccc2)=C(O)c2ccccc2S1(=O)=O)Nc1ccccc1[N+](=O)[O-]` [Compound 11g, 2-(3-Benzoyl-4-hydroxy-1,1-dioxido-2H-benzo[e][1,2]thiazin-2-yl)-N-(2-nitrophenyl)acetamide], the melting point is 157 to 158 °C. For the same compound, at α-glucosidase, the pIC50 is 4.05 and the inhibition at 200 µM was found to be 58%.
The corresponding values for `O=C(CN1C(C(=O)c2ccccc2)=C(O)c2ccccc2S1(=O)=O)Nc1cccc([N+](=O)[O-])c1` [Compound 11h, 2-(3-Benzoyl-4-hydroxy-1,1-dioxido-2H-benzo[e][1,2]thiazin-2-yl)-N-(3-nitrophenyl)acetamide] are 170 to 172 °C, 4.33 and 63%.
`O=C(CN1C(C(=O)c2ccccc2)=C(O)c2ccccc2S1(=O)=O)Nc1ccc([N+](=O)[O-])cc1` [Compound 11i, 2-(3-Benzoyl-4-hydroxy-1,1-dioxido-2H-benzo[e][1,2]thiazin-2-yl)-N-(4-nitrophenyl)acetamide]: the melting point is 194 to 195 °C. In addition, on α-glucosidase, the negative logarithm of the IC50 (pIC50) was 4.39 and the inhibition at 200 µM is 77%.
The corresponding values for `O=C(CN1C(C(=O)c2ccccc2)=C(O)c2ccccc2S1(=O)=O)Nc1cccc(Br)c1` [Compound 11j, 2-(3-Benzoyl-4-hydroxy-1,1-dioxido-2H-benzo[e][1,2]thiazin-2-yl)-N-(3-bromophenyl)acetamide] are 163 to 166 °C, less than 4.00 and 50%.
For the compound `O=C(CN1C(C(=O)c2ccccc2)=C(O)c2ccccc2S1(=O)=O)Nc1ccc(Br)cc1` [Compound 11k, 2-(3-Benzoyl-4-hydroxy-1,1-dioxido-2H-benzo[e][1,2]thiazin-2-yl)-N-(4-bromophenyl)acetamide], the melting point is 150 to 153 °C. In addition, on α-glucosidase, the inhibition at 200 µM came to 13%.
In turn, `COc1ccccc1NC(=O)CN1C(C(=O)c2ccccc2)=C(O)c2ccccc2S1(=O)=O` [Compound 11l, 2-(3-Benzoyl-4-hydroxy-1,1-dioxido-2H-benzo[e][1,2]thiazin-2-yl)-N-(2-methoxyphenyl)acetamide] gave a melting point of 199 to 200 °C. Also, at α-glucosidase, the negative-log IC50 (pIC50) is less than 4.00 and the inhibition at 200 µM was 54%.
For `COc1ccc(NC(=O)CN2C(C(=O)c3ccccc3)=C(O)c3ccccc3S2(=O)=O)cc1` [Compound 11m, 2-(3-Benzoyl-4-hydroxy-1,1-dioxido-2H-benzo[e][1,2]thiazin-2-yl)-N-(4-methoxyphenyl)acetamide], the melting point fell in the range of 164 to 165 °C. Besides, the inhibition at 200 µM on α-glucosidase came to 69%.
Take `O=C(CN1C(C(=O)c2ccc(Br)cc2)=C(O)c2ccccc2S1(=O)=O)Nc1ccccc1Cl` [Compound 12a, 2-(3-(4-Bromobenzoyl)-4-hydroxy-1,1-dioxido-2H-benzo[e][1,2]thiazin-2-yl)-N-(2-chlorophenyl)acetamide]: the melting point lay within 180 to 181 °C. Besides, at α-glucosidase, the pIC50 is 4.74, the “effectiveness as inhibitor compared to acarbose” value was “roughly three-fold” and the inhibition at 200 µM amounted to 79%.
`O=C(CN1C(C(=O)c2ccc(Br)cc2)=C(O)c2ccccc2S1(=O)=O)Nc1cccc(Cl)c1` [Compound 12b, 2-(3-(4-Bromobenzoyl)-4-hydroxy-1,1-dioxido-2H-benzo[e][1,2]thiazin-2-yl)-N-(3-chlorophenyl)acetamide]: the melting point fell in the range of 148 to 150 °C. In addition, the inhibition at 200 µM at α-glucosidase was found to be 47%.
In turn, `O=C(CN1C(C(=O)c2ccc(Br)cc2)=C(O)c2ccccc2S1(=O)=O)Nc1ccc(Cl)cc1` [Compound 12c, 2-(3-(4-Bromobenzoyl)-4-hydroxy-1,1-dioxido-2H-benzo[e][1,2]thiazin-2-yl)-N-(4-chlorophenyl)acetamide] showed a melting point of 181 to 184 °C. In addition, on α-glucosidase, the negative-log IC50 (pIC50) was less than 4.00 and the inhibition at 200 µM was determined as 61%.
`Cc1ccccc1NC(=O)CN1C(C(=O)c2ccc(Br)cc2)=C(O)c2ccccc2S1(=O)=O` [Compound 12d, 2-(3-(4-Bromobenzoyl)-4-hydroxy-1,1-dioxido-2H-benzo[e][1,2]thiazin-2-yl)-N-(o-tolyl)acetamide] gave a melting point of 193 to 194 °C. In addition, at α-glucosidase, the pIC50 was 4.68, the “effectiveness as inhibitor compared to acarbose” value is recorded as “roughly three-fold” and the inhibition at 200 µM came to 76%.
As for `Cc1cccc(NC(=O)CN2C(C(=O)c3ccc(Br)cc3)=C(O)c3ccccc3S2(=O)=O)c1` [Compound 12e, 2-(3-(4-Bromobenzoyl)-4-hydroxy-1,1-dioxido-2H-benzo[e][1,2]thiazin-2-yl)-N-(m-tolyl)acetamide], the melting point is 143 to 144 °C. At α-glucosidase, the pIC50 was 4.45 and the inhibition at 200 µM was found to be 71%.
`Cc1ccc(NC(=O)CN2C(C(=O)c3ccc(Br)cc3)=C(O)c3ccccc3S2(=O)=O)cc1` [Compound 12f, 2-(3-(4-Bromobenzoyl)-4-hydroxy-1,1-dioxido-2H-benzo[e][1,2]thiazin-2-yl)-N-(p-tolyl)acetamide] came in with a melting point of 190 to 192 °C. Further, the inhibition at 200 µM on α-glucosidase came out at 20%.
For the compound `O=C(CN1C(C(=O)c2ccc(Br)cc2)=C(O)c2ccccc2S1(=O)=O)Nc1ccccc1[N+](=O)[O-]` [Compound 12g, 2-(3-(4-Bromobenzoyl)-4-hydroxy-1,1-dioxido-2H-benzo[e][1,2]thiazin-2-yl)-N-(2-nitrophenyl)acetamide], the melting point fell in the range of 177 to 178 °C. For the same compound, on α-glucosidase, the negative-log IC50 (pIC50) was 4.62 and the inhibition at 200 µM was 76%.
The corresponding values for `O=C(CN1C(C(=O)c2ccc(Br)cc2)=C(O)c2ccccc2S1(=O)=O)Nc1cccc([N+](=O)[O-])c1` [Compound 12h, 2-(3-(4-Bromobenzoyl)-4-hydroxy-1,1-dioxido-2H-benzo[e][1,2]thiazin-2-yl)-N-(3-nitrophenyl)acetamide] are 208 to 209 °C, less than 4.00 and 58%.
`O=C(CN1C(C(=O)c2ccc(Br)cc2)=C(O)c2ccccc2S1(=O)=O)Nc1ccc([N+](=O)[O-])cc1` [Compound 12i, 2-(3-(4-Bromobenzoyl)-4-hydroxy-1,1-dioxido-2H-benzo[e][1,2]thiazin-2-yl)-N-(4-nitrophenyl)acetamide] gave a melting point of 210 to 212 °C. The inhibition at 200 µM on α-glucosidase came out at 33%.
The corresponding values for `O=C(CN1C(C(=O)c2ccc(Br)cc2)=C(O)c2ccccc2S1(=O)=O)Nc1cccc(Br)c1` [Compound 12j, 2-(3-(4-Bromobenzoyl)-4-hydroxy-1,1-dioxido-2H-benzo[e][1,2]thiazin-2-yl)-N-(3-bromophenyl)acetamide] are 145 to 147 °C and 12%.

What is called pIC50 is −log10 of the IC50, conventionally taken in molar units. The melting point is the temperature, or range, at which the solid turns liquid.
